We go through 18 molecules from ChEMBL document CHEMBL3217506, “Amidines bearing benzofuroxan or benzimidazole 1,3-dioxide core scaffolds as Trypanosoma cruzi-inhibitors: structural basis for their interactions with cruzipain” (Medchemcomm, 2012).

In data set [1] the target is Cruzipain (Trypanosoma cruzi) (UniProt P25779). The data set can be described thus: Inhibition of Trypanosoma cruzi cruzipain using Z-Phe-Arg-AMC as substrate at pH 7.4 after 10 mins by spectrofluorimetry relative to untreated control.
A further data set has as its system Trypanosoma cruzi. The data set can be described thus: Antitrypanosomal activity against epimastigote stage of Trypanosoma cruzi Tulahuen 2 after 5 days relative to untreated control. In kind it is functional. Conditions: Tulahuen 2, 120 h, read-out: ID50 (the source's name).
The target of data set [2] is Cruzipain (Trypanosoma cruzi) (UniProt P25779). The data set can be described thus: Inhibition of Trypanosoma cruzi cruzipain using Z-Phe-Arg-AMC as substrate at 100 uM at pH 5.3 after 10 mins by spectrofluorimetry relative to untreated control.
The nature of data set [3]: Selectivity index, ratio of ID50 for human RBC to ID50 for epimastigote stage of Trypanosoma cruzi Tulahuen 2.
Data set [4] is described as follows: Cytotoxicity against human RBC assessed as hemolytic activity after 24 hrs by spectrophotometry. In kind it is cell-based, Erythrocyte. Conditions: human red blood cells (RBC), read-out: ID50.
Data set [5] deals with Cruzipain (Trypanosoma cruzi) (UniProt P25779). Briefly: Inhibition of Trypanosoma cruzi cruzipain using Z-Phe-Arg-AMC as substrate at 100 uM at pH 7.4 after 10 mins by spectrofluorimetry relative to untreated control.
Data set [6] has the same target. The data set can be described thus: Inhibition of Trypanosoma cruzi cruzipain using Z-Phe-Arg-AMC as substrate at 100 uM at pH 5.3 after 10 mins by spectrofluorimetry in presence of Triton X-100 relative to untreated control.

Molecules are shown by their SMILES.

Sequence of Cruzipain (Trypanosoma cruzi) (P25779 123-467 limits assumed): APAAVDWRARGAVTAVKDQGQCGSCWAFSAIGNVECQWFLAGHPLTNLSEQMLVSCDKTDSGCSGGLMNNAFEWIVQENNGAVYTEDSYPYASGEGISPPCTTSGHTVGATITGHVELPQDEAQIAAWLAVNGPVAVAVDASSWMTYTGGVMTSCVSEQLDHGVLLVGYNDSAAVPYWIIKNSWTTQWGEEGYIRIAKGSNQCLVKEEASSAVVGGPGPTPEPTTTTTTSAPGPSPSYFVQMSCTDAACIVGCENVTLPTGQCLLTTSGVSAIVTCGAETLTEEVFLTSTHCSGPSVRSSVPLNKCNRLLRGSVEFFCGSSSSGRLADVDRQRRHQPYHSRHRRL

As to `N=C(N/N=C/c1ccc(O)cc1)SCc1ccc2no[n+]([O-])c2c1`, the ID50 in data set [1] turned out to be 64.5 µM. Also, the IC50 in the data set with Trypanosoma cruzi worked out at 6.8 µM.

In data set [2], `c1ccc(CC/N=C(/Nc2ccccc2)N2CCNCC2)cc1` came in with an inhibition of 3.2%.

On to `[O-][n+]1onc2ccc(CN3CCN(/C(=N/c4ccccc4)NCCc4ccccc4)CC3)cc21`, for which the ID50 in data set [1] was more than 100 µM. Also, the Selectivity Index in data set [3] is 31. Moreover, the HC50 at 24 h in data set [4] amounted to 37 µM. For the same molecule, the inhibition in data set [2] was found to be 34%; in data set [5] it was 25%. Moreover, the IC50 in the data set with Trypanosoma cruzi turned out to be 1.2 µM.

`c1ccc(/N=C(/Nc2ccccc2)N2CCNCC2)cc1`: the inhibition in data set [2] is 6.3%.

As to `CC1(C)[N+]([O-])=c2ccc(CN3CCN(/C(=N/c4ccccc4)NCc4ccccc4)CC3)cc2=[N+]1[O-]`, in data set [4], the HC50 at 24 h was more than 36 µM. Besides, the inhibition in data set [5] stood at 34%.

In the case of `c1ccc(N/C(=N/Cc2ccco2)N2CCNCC2)cc1`, the inhibition in data set [2] is 10%.

In the case of `c1ccc(C/N=C(/Nc2ccccc2)N2CCNCC2)cc1`, in data set [2], the inhibition was determined as 5.4%.

Turning to `[O-][n+]1onc2ccc(CN3CCN(/C(=N/c4ccccc4)NCc4ccccc4)CC3)cc21`, the HC50 at 24 h in data set [4] amounted to 83 µM. Besides, the inhibition in data set [2] was determined as 11%; in data set [5], 29%.

For the molecule `CC1(C)[N+]([O-])=c2ccc(CN3CCN(/C(=N/c4ccccc4)NCc4ccco4)CC3)cc2=[N+]1[O-]`, the HC50 at 24 h in data set [4] was more than 200 µM. In data set [5], the inhibition stood at 15%.

Regarding `O=C(Cn1ccnc1[N+](=O)[O-])NCc1ccccc1` [BENZNIDAZOLE], the IC50 in the data set with Trypanosoma cruzi stood at 7.4 µM.

With `CC/C(=N\N=C(\N)S)c1cccc(Br)c1`, the ID50 in data set [1] stood at 0.1 µM.

In the case of `CC1(C)[N+]([O-])=c2ccc(CN3CCN(/C(=N/c4ccccc4)NCCc4ccccc4)CC3)cc2=[N+]1[O-]`, the Selectivity Index in data set [3] is more than 50. The HC50 at 24 h in data set [4] is more than 50 µM. Further, the inhibition in data set [5] is 30%. In the data set with Trypanosoma cruzi, the IC50 was 1 µM.

As for `CC1CS(=O)(=O)CCN1/N=C/c1ccc([N+](=O)[O-])o1` (stereo unspecified) [NIFURTIMOX], the Selectivity Index in data set [3] is more than 13. Further, in data set [4], the HC50 at 24 h is more than 100 µM. Moreover, the IC50 in the data set with Trypanosoma cruzi came to 7.7 µM.

Turning to `C[C@@H]1[C@H](O)[C@@H](C)/C=C/C=C/C=C/C=C/C=C/C=C/C=C/[C@H](O[C@@H]2O[C@H](C)[C@@H](O)[C@H](N)[C@@H]2O)C[C@@H]2O[C@](O)(C[C@@H](O)C[C@@H](O)[C@H](O)CC[C@@H](O)C[C@@H](O)CC(=O)O[C@H]1C)C[C@H](O)[C@H]2C(=O)O`, the Selectivity Index in data set [3] stood at 10.

On to `[O-][n+]1onc2ccc(CN3CCN(/C(=N/c4ccccc4)NCc4ccco4)CC3)cc21`, for which the inhibition in data set [6] turned out to be 45%; in data set [2], 44%; in data set [5] it was 0.3%. Besides, in data set [1], the ID50 was 100 µM. In addition, the Selectivity Index in data set [3] was more than 13. In addition, the HC50 at 24 h in data set [4] is more than 200 µM. Besides, in the data set on Trypanosoma cruzi, the IC50 turned out to be 15 µM.

Turning to `N=C(N)N/N=C/c1ccc(OCc2ccc3no[n+]([O-])c3c2)cc1`, the ID50 in data set [1] stood at 32 µM. In addition, the IC50 in the data set with Trypanosoma cruzi was more than 25 µM.

Turning to `O=S(=O)(/C=C/c1ccc2no[n+]([O-])c2c1)c1ccccc1`, the ID50 in data set [1] was more than 50 µM. Moreover, the IC50 with Trypanosoma cruzi was 1.6 µM.

Take `[O-][n+]1onc2ccc(CN3CCN(/C(=N/c4ccccc4)Nc4ccccc4)CC3)cc21`: the ID50 in data set [1] is 100 µM. In data set [3], the Selectivity Index amounted to 18. Moreover, in data set [4], the HC50 at 24 h was 105 µM. Besides, the inhibition worked out at 47% in data set [2] and 12% in data set [5]. Further, in the data set on Trypanosoma cruzi, the IC50 was found to be 5.8 µM.

A word on the inhibition: it is how much of the control response was suppressed.
